Measurements: ChEMBL document CHEMBL3885881, “DrugMatrix”

Species: Rattus norvegicus
Assay: DrugMatrix - Regimen: Daily Repeat
Format: toxicity, organism-based, Sprague-Dawley
Parameters: regimen Daily Repeat, gender Male, age 6-8 weeks
Conditions: in vivo, po, route oral GAVAGE, vehicle .5 % CMC; for URIC ACID / ALANINE AMINOTRANSFERASE / ALBUMIN / ALKALINE PHOSPHATASE / ASPARTATE AMINOTRANSFERASE / BLOOD UREA NITROGEN / CARBON DIOXIDE / CHLORIDE / CHOLESTEROL / CREATINE PHOSPHOKINASE / CREATININE / GLUCOSE / LACTATE DEHYDROGENASE / LIPASE / PHOSPHORUS / POTASSIUM / SODIUM / TOTAL BILIRUBIN / TOTAL PROTEIN: tissue Plasma; for ABSOLUTE BASOPHIL / ABSOLUTE EOSINOPHIL / ABSOLUTE LYMPHOCYTE / ABSOLUTE MONOCYTE / ABSOLUTE SEGMENTED NEUTROPHIL / BASOPHIL / EOSINOPHIL / ERYTHROCYTE COUNT / HEMATOCRIT / HEMOGLOBIN / LEUKOCYTE COUNT / LYMPHOCYTE / MEAN CORPUSCULAR HEMOGLOBIN / MEAN CORPUSCULAR HEMOGLOBIN CONCENTRATION / MEAN CORPUSCULAR VOLUME / MONOCYTE / NEUTROPHIL / NUCLEATED RED BLOOD CELLS / PLATELET COUNT: tissue Blood
[1] = 250 mg/kg, 120 h, dose level High, time 5 day
[2] = […], 72 h, dose 0.25 mg/Kg, dose level Low, time 3 day
[3] = […], 120 h, dose 0.25 mg/Kg, dose level Low, time 5 day

C#C[C@]1(O)CC[C@H]2[C@@H]3CCc4cc(OC)ccc4[C@H]3CC[C@@]21C [MESTRANOL]
URIC ACID (250 mg/kg, 72 h, dose level High, time 3 day): 1.23 mg/dL
ABSOLUTE BASOPHIL [1]: 0 CELLS/uL
ABSOLUTE EOSINOPHIL [1]: 0 CELLS/uL
ABSOLUTE LYMPHOCYTE [1]: 11929 CELLS/uL
ABSOLUTE MONOCYTE [1]: 0 CELLS/uL
ABSOLUTE SEGMENTED NEUTROPHIL [1]: 1137.67 CELLS/uL
BASOPHIL [1]: 0%
EOSINOPHIL [1]: 0%
ERYTHROCYTE COUNT [1]: 6.07 x10E6/uL
HEMATOCRIT [1]: 37.27%
HEMOGLOBIN [1]: 14.37 G/DL
LEUKOCYTE COUNT [1]: 13.07 x10E3/uL
LYMPHOCYTE [1]: 91.33%
MEAN CORPUSCULAR HEMOGLOBIN [1]: 23.67 pg
MEAN CORPUSCULAR HEMOGLOBIN CONCENTRATION [1]: 38.53 G/DL
MEAN CORPUSCULAR VOLUME [1]: 61.37 fL
MONOCYTE [1]: 0%
NEUTROPHIL [1]: 8.67%
NUCLEATED RED BLOOD CELLS [1]: 0 /100WBC
PLATELET COUNT [1]: 1600 x10E3/uL
ALANINE AMINOTRANSFERASE [1]: 72.67 u/L
ALBUMIN [1]: 4.13 G/DL
ALKALINE PHOSPHATASE [1]: 667.33 u/L
ASPARTATE AMINOTRANSFERASE [1]: 77.67 u/L
BLOOD UREA NITROGEN [1]: 14.67 mg/dL
CARBON DIOXIDE [1]: 23.67 mmol/L
CHLORIDE [1]: 102 MEQ/L
CHOLESTEROL [1]: 4.67 mg/dL
CREATINE PHOSPHOKINASE [1]: 223.67 u/L
CREATININE [1]: 0.14 mg/dL
GLUCOSE [1]: 117 mg/dL
LACTATE DEHYDROGENASE [1]: 394.67 u/L
LIPASE [1]: 7.33 u/L
PHOSPHORUS [1]: 10.63 mg/dL
POTASSIUM [1]: 6.65 MEQ/L
SODIUM [1]: 145.1 MEQ/L
TOTAL BILIRUBIN [1]: 0.13 mg/dL
URIC ACID [1]: 1.63 mg/dL
ABSOLUTE BASOPHIL [2]: 0 CELLS/uL
ABSOLUTE EOSINOPHIL [2]: 68.33 CELLS/uL
ABSOLUTE LYMPHOCYTE [2]: 15182.67 CELLS/uL
ABSOLUTE MONOCYTE [2]: 0 CELLS/uL
ABSOLUTE SEGMENTED NEUTROPHIL [2]: 1349 CELLS/uL
BASOPHIL [2]: 0%
EOSINOPHIL [2]: 0.33%
ERYTHROCYTE COUNT [2]: 5.73 x10E6/uL
HEMATOCRIT [2]: 36.73%
HEMOGLOBIN [2]: 14.03 G/DL
LEUKOCYTE COUNT [2]: 16.6 x10E3/uL
LYMPHOCYTE [2]: 91.67%
MEAN CORPUSCULAR HEMOGLOBIN [2]: 24.5 pg
MEAN CORPUSCULAR HEMOGLOBIN CONCENTRATION [2]: 38.17 G/DL
MEAN CORPUSCULAR VOLUME [2]: 64.17 fL
MONOCYTE [2]: 0%
NEUTROPHIL [2]: 8%
NUCLEATED RED BLOOD CELLS [2]: 0 /100WBC
PLATELET COUNT [2]: 1226 x10E3/uL
ALANINE AMINOTRANSFERASE [2]: 51.33 u/L
ALBUMIN [2]: 4.37 G/DL
ALKALINE PHOSPHATASE [2]: 522.67 u/L
ASPARTATE AMINOTRANSFERASE [2]: 83.67 u/L
BLOOD UREA NITROGEN [2]: 12.67 mg/dL
CARBON DIOXIDE [2]: 28 mmol/L
CHLORIDE [2]: 101.67 MEQ/L
CHOLESTEROL [2]: 36 mg/dL
CREATINE PHOSPHOKINASE [2]: 348.33 u/L
CREATININE [2]: 0.27 mg/dL
GLUCOSE [2]: 135.67 mg/dL
LACTATE DEHYDROGENASE [2]: 453.33 u/L
LIPASE [2]: 7.67 u/L
PHOSPHORUS [2]: 11.2 mg/dL
POTASSIUM [2]: 6.61 MEQ/L
SODIUM [2]: 145.07 MEQ/L
TOTAL BILIRUBIN [2]: 0.23 mg/dL
TOTAL PROTEIN [2]: 6.23 G/DL
URIC ACID [2]: 1.33 mg/dL
ABSOLUTE BASOPHIL [3]: 0 CELLS/uL
ABSOLUTE EOSINOPHIL [3]: 139.33 CELLS/uL
ABSOLUTE LYMPHOCYTE [3]: 14510.33 CELLS/uL
ABSOLUTE MONOCYTE [3]: 98 CELLS/uL
ABSOLUTE SEGMENTED NEUTROPHIL [3]: 652.33 CELLS/uL
BASOPHIL [3]: 0%
EOSINOPHIL [3]: 1%
ERYTHROCYTE COUNT [3]: 5.62 x10E6/uL
HEMATOCRIT [3]: 35.57%
HEMOGLOBIN [3]: 14.03 G/DL
LEUKOCYTE COUNT [3]: 15.4 x10E3/uL
LYMPHOCYTE [3]: 94.33%
MEAN CORPUSCULAR HEMOGLOBIN [3]: 25.13 pg
MEAN CORPUSCULAR HEMOGLOBIN CONCENTRATION [3]: 39.5 G/DL
MEAN CORPUSCULAR VOLUME [3]: 63.6 fL
MONOCYTE [3]: 0.67%
NEUTROPHIL [3]: 4%
NUCLEATED RED BLOOD CELLS [3]: 0 /100WBC
PLATELET COUNT [3]: 1110.33 x10E3/uL
ALANINE AMINOTRANSFERASE [3]: 49.33 u/L
ALBUMIN [3]: 3.97 G/DL
ALKALINE PHOSPHATASE [3]: 553.33 u/L
ASPARTATE AMINOTRANSFERASE [3]: 70.67 u/L
BLOOD UREA NITROGEN [3]: 19.33 mg/dL
CARBON DIOXIDE [3]: 26.67 mmol/L
CHLORIDE [3]: 102.67 MEQ/L
CHOLESTEROL [3]: 31.33 mg/dL
CREATINE PHOSPHOKINASE [3]: 297.67 u/L
CREATININE [3]: 0.26 mg/dL
GLUCOSE [3]: 141.33 mg/dL
LACTATE DEHYDROGENASE [3]: 123.67 u/L
LIPASE [3]: 7.33 u/L
PHOSPHORUS [3]: 11.23 mg/dL
POTASSIUM [3]: 6.54 MEQ/L
SODIUM [3]: 144.33 MEQ/L
TOTAL BILIRUBIN [3]: 0.27 mg/dL
TOTAL PROTEIN [3]: 6 G/DL
URIC ACID [3]: 1.13 mg/dL
